Test results from PMC8102404, “A key role for the transporter OAT1 in systemic lipid metabolism” (The Journal of Biological Chemistry, 2021).

Target: T1, Organic anion transporter 1 (hOAT1) (Homo sapiens, UniProt Q4U2R8)
T1 construct: gene SLC22A6
T1 sequence (Q4U2R8 1-563): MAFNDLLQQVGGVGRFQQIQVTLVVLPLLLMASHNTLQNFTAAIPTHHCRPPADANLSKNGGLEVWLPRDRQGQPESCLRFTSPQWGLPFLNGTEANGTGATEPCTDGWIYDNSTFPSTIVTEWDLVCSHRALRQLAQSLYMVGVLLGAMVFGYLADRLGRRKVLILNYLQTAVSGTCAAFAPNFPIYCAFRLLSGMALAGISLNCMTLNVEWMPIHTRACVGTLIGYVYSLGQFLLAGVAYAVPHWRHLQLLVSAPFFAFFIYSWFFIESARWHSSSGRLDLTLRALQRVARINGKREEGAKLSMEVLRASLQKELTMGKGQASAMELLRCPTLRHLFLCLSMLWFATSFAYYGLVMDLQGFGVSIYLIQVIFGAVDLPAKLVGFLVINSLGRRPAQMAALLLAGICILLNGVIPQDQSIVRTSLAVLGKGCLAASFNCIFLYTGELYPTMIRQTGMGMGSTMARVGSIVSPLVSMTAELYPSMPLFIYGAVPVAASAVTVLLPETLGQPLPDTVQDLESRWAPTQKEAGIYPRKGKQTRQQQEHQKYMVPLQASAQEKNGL
Test: competitive inhibition of 6-carboxyfluorescein uptake in hOAT1-overexpressing HEK293 cells
Format: cell-based

Work on `CCCCCCCCCCCCCCC(=O)O` [Pentadecanoic acid] yielded an IC50 of 103 µM.
